How the values were obtained:
velvetleaf [1] = experiment: Test Example 5: herbicidal effect by foliage application, plastic box (Table 20, symbol M); format: in vivo, velvetleaf (Abutilon theophrasti); conditions: for M: velvetleaf, herbicidal effect grade: three weeks after application
Procedure, shortened: (§1)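 Foliar spray test: emulsion formulation diluted in water to a set application rate, sprayed onto 14-day-old plants raised in diluvial soil at 25° C to 30° C under glass. Both herbicidal effect and crop effect rated visually three weeks later.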

green foxtail = experiment: Test Example 4: herbicidal effect by soil treatment (Table 19, symbol G); format: in vivo, green foxtail (Setaria viridis); conditions: amount of applied herbicide 320 g/ha
Procedure, shortened: (§2)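 Step 1: sow seeds in sterilized diluvial soil, cover ~1.5 cm. Step 2: spray diluted emulsion onto soil surface at predetermined rate. Step 3: greenhouse, 25–30° C, three weeks. Step 4: grade effect on each plant by earlier criteria.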

lambsquarters = experiment: Test Example 4: herbicidal effect by soil treatment (Table 19, symbol O); format: in vivo, lambsquarters (Chenopodium album); conditions: amount of applied herbicide 320 g/ha
Procedure, shortened: as §2

late watergrass = experiment: Test Example 1: herbicidal activity, application before weed generation under submerged conditions (Table 16, symbol A); format: in vivo, late watergrass (Echinochloa oryzicola); conditions: amount of applied herbicide 320 g/ha
Procedure, shortened: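 Emulsion formulation, water-diluted to set dose, was put onto the flooded surface (4 cm depth, alluvial soil) the same day weeds were sown and 2.5-leaf rice transplanted. After 3 weeks at 25-30 °C under glass, each species was rated 0 (≤5% kill) to 5 (≥90% kill).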

oval-leafed pondweed = experiment: Test Example 2: herbicidal activity, application during weed generation under submerged conditions (Table 17, symbol C); format: in vivo, oval-leafed pondweed (Monochoria vaginalis); conditions: AAH 320 g/ha; application during weed generation, submerged conditions
Procedure, shortened: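 3-wk visual-criteria score after one water-surface dose. Emulsion formulation, water-diluted to set rate; applied at 1–2 leaf stage; alluvial soil, 4 cm standing water; seeds co-sown; greenhouse 25–30° C.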

windgrass [2] = experiment: Test Example 4: herbicidal effect by soil treatment (Table 19, symbol L); format: in vivo, windgrass (Apera spica-venti); conditions: amount of applied herbicide 320 g/ha
Procedure, shortened: as §2

Italian ryegrass [3] = experiment: Test Example 5: herbicidal effect by foliage application, plastic box (Table 20, symbol K); format: in vivo, Italian ryegrass (Lolium multiflorum); conditions: for K: Italian ryegrass, herbicidal effect grade: three weeks after application
Procedure, shortened: as §1

persian speedwell = experiment: Test Example 4: herbicidal effect by soil treatment (Table 19, symbol R); format: in vivo, Persian speedwell (Veronica persica); conditions: amount of applied herbicide 320 g/ha
Procedure, shortened: as §2

velvetleaf [4] = experiment: Test Example 4: herbicidal effect by soil treatment (Table 19, symbol M); format: in vivo, velvetleaf (Abutilon theophrasti); conditions: amount of applied herbicide 320 g/ha
Procedure, shortened: as §2

chickweed = experiment: Test Example 5: herbicidal effect by foliage application, plastic box (Table 20, symbol P); format: in vivo, common chickweed (Stellaria media); conditions: for P: chickweed, herbicidal effect grade: three weeks after application
Procedure, shortened: as §1

wild oat = experiment: Test Example 4: herbicidal effect by soil treatment (Table 19, symbol I); format: in vivo, wild oat (Avena fatua); conditions: amount of applied herbicide 320 g/ha
Procedure, shortened: as §2

Italian ryegrass [5] = experiment: Test Example 4: herbicidal effect by soil treatment (Table 19, symbol K); format: in vivo, Italian ryegrass (Lolium multiflorum); conditions: amount of applied herbicide 320 g/ha
Procedure, shortened: as §2

windgrass [6] = experiment: Test Example 5: herbicidal effect by foliage application, plastic box (Table 20, symbol L); format: in vivo, windgrass (Apera spica-venti); conditions: for L: windgrass, herbicidal effect grade: three weeks after application
Procedure, shortened: as §1

rice flat sedge = experiment: Test Example 3: herbicidal effect by foliage application, Wagner pot (Table 18, symbol E); format: in vivo, rice flat sedge (Cyperus iria); conditions: for herbicidal effect on E: rice flat sedge: amount of applied herbicide 320 g/ha
Procedure, shortened: (§3)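 Plants were sown in alluvial soil held under 0.1–0.5 cm standing water and grown 14 days in a greenhouse at 25–30 °C. An emulsifiable formulation, water-diluted to the set dose, was then sprayed onto the foliage, and effects were scored three weeks later using previously defined criteria.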

Chinese sprangletop = experiment: Test Example 3: herbicidal effect by foliage application, Wagner pot (Table 18, symbol D); format: in vivo, chinese sprangletop (Leptochloa chinensis); conditions: for herbicidal effect on D: Chinese sprangletop: amount of applied herbicide 320 g/ha
Procedure, shortened: as §3

barnyard grass = experiment: Test Example 5: herbicidal effect by foliage application, plastic box (Table 20, symbol H); format: in vivo, barnyard grass (Echinochloa crus-galli); conditions: for H: barnyard grass, herbicidal effect grade: three weeks after application
Procedure, shortened: as §1

[7] = 320 g/ha, foliage application after 14-day growth, evaluated three weeks after application
[8] = foliage application, AAH 320 g/ha, evaluated three weeks after application

## CCOc1ccccc1-c1sc2ccc(F)cc2c1-c1c(O)c(CC)nn(C)c1=O [2-416]
Velvetleaf [1]; foliage application, 320 g/ha
  M: velvetleaf, herbicidal effect grade: 3 (Herbicidal rate of 40% or more and less than 70%)
Green foxtail
  herbicidal effect, G: green foxtail: 0 (Herbicidal rate of 5% or less (almost no effect))
lambsquarters
  herbicidal effect, O: lambsquarters: 0 (Herbicidal rate of 5% or less (almost no effect))
Late watergrass
  Herbicidal effect, A: late watergrass: 3 (Herbicidal rate of 40% or more and less than 70%)
oval-leafed pondweed
  herbicidal effect rating, C: oval-leafed pondweed: 2 (Herbicidal rate of 20% or more and less than 40%)
Windgrass [2]
  herbicidal effect, L: windgrass: 0 (Herbicidal rate of 5% or less (almost no effect))
Italian ryegrass [3]; foliage application, 320 g/ha
  K: Italian ryegrass, herbicidal effect grade: 0 (Herbicidal rate of 5% or less (almost no effect))
Persian speedwell
  herbicidal effect, R: persian speedwell: 0 (Herbicidal rate of 5% or less (almost no effect))
Velvetleaf [4]
  herbicidal effect, M: velvetleaf: 0 (Herbicidal rate of 5% or less (almost no effect))
chickweed; foliage application, 320 g/ha
  P: chickweed, herbicidal effect grade: 5 (Herbicidal rate of 90% or more (almost completely withered))
Wild oat
  herbicidal effect, I: wild oat: 0 (Herbicidal rate of 5% or less (almost no effect))
Italian ryegrass [5]
  herbicidal effect, K: Italian ryegrass: 0 (Herbicidal rate of 5% or less (almost no effect))
Windgrass [6]; foliage application, 320 g/ha
  L: windgrass, herbicidal effect grade: 0 (Herbicidal rate of 5% or less (almost no effect))
Rice flat sedge
  herbicidal effect on E: rice flat sedge: 4 (Herbicidal rate of 70% or more and less than 90%)
Chinese sprangletop
  herbicidal effect on D: Chinese sprangletop: 3 (Herbicidal rate of 40% or more and less than 70%)
Barnyard grass; foliage application, 320 g/ha
  H: barnyard grass, herbicidal effect grade: 3 (Herbicidal rate of 40% or more and less than 70%)

## CCCC(=O)Oc1c(C)nn(C)c(=O)c1-c1c(-c2ccc(C#N)cc2)sc2c(Cl)cccc12 [4-032]
Velvetleaf [1]; [7]
  herbicidal effect on M: velvetleaf (evaluation grade 0-5): 4 (Herbicidal rate of 70% or more and less than 90%)
Green foxtail
  Herbicidal effect by soil treatment, G: green foxtail: 0 (Herbicidal rate of 5% or less (almost no effect))
lambsquarters
  Herbicidal effect by soil treatment, O: lambsquarters: 0 (Herbicidal rate of 5% or less (almost no effect))
Late watergrass
  Herbicidal effect, A: late watergrass: 0 (Herbicidal rate of 5% or less (almost no effect))
oval-leafed pondweed
  herbicidal effect rating, C: oval-leafed pondweed: 0 (Herbicidal rate of 5% or less (almost no effect))
Windgrass [2]
  Herbicidal effect by soil treatment, L: windgrass: 0 (Herbicidal rate of 5% or less (almost no effect))
Italian ryegrass [3]; [7]
  herbicidal effect on K: Italian ryegrass (evaluation grade 0-5): 0 (Herbicidal rate of 5% or less (almost no effect))
Persian speedwell
  Herbicidal effect by soil treatment, R: persian speedwell: 3 (Herbicidal rate of 40% or more and less than 70%)
Velvetleaf [4]
  Herbicidal effect by soil treatment, M: velvetleaf: 0 (Herbicidal rate of 5% or less (almost no effect))
chickweed; [7]
  herbicidal effect on P: chickweed (evaluation grade 0-5): 5 (Herbicidal rate of 90% or more (almost completely withered))
Wild oat
  Herbicidal effect by soil treatment, I: wild oat: 0 (Herbicidal rate of 5% or less (almost no effect))
Italian ryegrass [5]
  Herbicidal effect by soil treatment, K: Italian ryegrass: 0 (Herbicidal rate of 5% or less (almost no effect))
Windgrass [6]; [7]
  herbicidal effect on L: windgrass (evaluation grade 0-5): 4 (Herbicidal rate of 70% or more and less than 90%)
Rice flat sedge; 320 g/ha
  herbicidal effect on rice flat sedge (E): 5 (Herbicidal rate of 90% or more (almost completely withered))
Chinese sprangletop; 320 g/ha
  herbicidal effect on Chinese sprangletop (D): 3 (Herbicidal rate of 40% or more and less than 70%)
Barnyard grass; [7]
  herbicidal effect on H: barnyard grass (evaluation grade 0-5): 0 (Herbicidal rate of 5% or less (almost no effect))

## CCCC(=O)Oc1c(CC)nn(C)c(=O)c1-c1c(-c2ccc(C(F)(F)F)cc2)sc2ccc(F)cc12 [2-411]
Velvetleaf [1]; foliage application, 320 g/ha
  M: velvetleaf, herbicidal effect grade: 1 (Herbicidal rate of 5% or more and less than 20%)
Green foxtail
  herbicidal effect, G: green foxtail: 0 (Herbicidal rate of 5% or less (almost no effect))
lambsquarters
  herbicidal effect, O: lambsquarters: 0 (Herbicidal rate of 5% or less (almost no effect))
Late watergrass
  Herbicidal effect, A: late watergrass: 3 (Herbicidal rate of 40% or more and less than 70%)
oval-leafed pondweed
  herbicidal effect rating, C: oval-leafed pondweed: 0 (Herbicidal rate of 5% or less (almost no effect))
Windgrass [2]
  herbicidal effect, L: windgrass: 0 (Herbicidal rate of 5% or less (almost no effect))
Italian ryegrass [3]; foliage application, 320 g/ha
  K: Italian ryegrass, herbicidal effect grade: 0 (Herbicidal rate of 5% or less (almost no effect))
Persian speedwell
  herbicidal effect, R: persian speedwell: 2 (Herbicidal rate of 20% or more and less than 40%)
Velvetleaf [4]
  herbicidal effect, M: velvetleaf: 0 (Herbicidal rate of 5% or less (almost no effect))
chickweed; foliage application, 320 g/ha
  P: chickweed, herbicidal effect grade: 5 (Herbicidal rate of 90% or more (almost completely withered))
Wild oat
  herbicidal effect, I: wild oat: 0 (Herbicidal rate of 5% or less (almost no effect))
Italian ryegrass [5]
  herbicidal effect, K: Italian ryegrass: 0 (Herbicidal rate of 5% or less (almost no effect))
Windgrass [6]; foliage application, 320 g/ha
  L: windgrass, herbicidal effect grade: 0 (Herbicidal rate of 5% or less (almost no effect))
Rice flat sedge
  herbicidal effect on E: rice flat sedge: 3 (Herbicidal rate of 40% or more and less than 70%)
Chinese sprangletop
  herbicidal effect on D: Chinese sprangletop: 3 (Herbicidal rate of 40% or more and less than 70%)
Barnyard grass; foliage application, 320 g/ha
  H: barnyard grass, herbicidal effect grade: 3 (Herbicidal rate of 40% or more and less than 70%)

## Cc1nn(C)c(=O)c(-c2c(-c3ccc4c(c3)OC(F)(F)O4)sc3ccc(F)cc23)c1O [2-392]
Velvetleaf [1]; [8]
  M: velvetleaf, herbicidal effect (criteria 0-5): 5 (Herbicidal rate of 90% or more (almost completely withered))
Green foxtail
  herbicidal effect, G: green foxtail: 1 (Herbicidal rate of 5% or more and less than 20%)
lambsquarters
  herbicidal effect, O: lambsquarters: 3 (Herbicidal rate of 40% or more and less than 70%)
Late watergrass
  Herbicidal effect, A: late watergrass: 3 (Herbicidal rate of 40% or more and less than 70%)
oval-leafed pondweed
  herbicidal effect rating, C: oval-leafed pondweed: 0 (Herbicidal rate of 5% or less (almost no effect))
Windgrass [2]
  herbicidal effect, L: windgrass: 1 (Herbicidal rate of 5% or more and less than 20%)
Italian ryegrass [3]; [8]
  K: Italian ryegrass, herbicidal effect (criteria 0-5): 5 (Herbicidal rate of 90% or more (almost completely withered))
Persian speedwell
  herbicidal effect, R: persian speedwell: 5 (Herbicidal rate of 90% or more (almost completely withered))
Velvetleaf [4]
  herbicidal effect, M: velvetleaf: 1 (Herbicidal rate of 5% or more and less than 20%)
chickweed; [8]
  P: chickweed, herbicidal effect (criteria 0-5): 5 (Herbicidal rate of 90% or more (almost completely withered))
Wild oat
  herbicidal effect, I: wild oat: 0 (Herbicidal rate of 5% or less (almost no effect))
Italian ryegrass [5]
  herbicidal effect, K: Italian ryegrass: 3 (Herbicidal rate of 40% or more and less than 70%)
Windgrass [6]; [8]
  L: windgrass, herbicidal effect (criteria 0-5): 0 (Herbicidal rate of 5% or less (almost no effect))
Rice flat sedge
  herbicidal effect on E: rice flat sedge: 5 (Herbicidal rate of 90% or more (almost completely withered))
Chinese sprangletop
  herbicidal effect on D: Chinese sprangletop: 4 (Herbicidal rate of 70% or more and less than 90%)
Barnyard grass; [8]
  H: barnyard grass, herbicidal effect (criteria 0-5): 5 (Herbicidal rate of 90% or more (almost completely withered))

— patent publication US20230085307A1, “PYRIDAZINONE COMPOUND AND HERBICIDE” (NISSAN CHEMICAL CORPORATION, priority 2019, published 2023)
